We go through 23 compounds from patent publication US20110268842A1 (SIGMA ALIMENTOS, S.A. DE C.V., priority 2008, published 2011).

The first assay has as its system Bifidobacterium animalis PTA-9175. Description: Determination of resistance patterns (Kirby-Bauer, inhibition halos). It is filed as cell-based. The conditions noted are these: sensidiscs on Mueller-Hinton agar; diameter 0 = resistant. On the procedure: Method: To determine the phenotype of resistance to antibiotics the Kirby-Bauer method was used. From a young culture of 18 to 24 hours several colonies were taken with a sterile swab and inoculated into a test tube with a sterile, isotonic saline solution. The inoculum was visually adjusted to a turbidity of 0.5 on the McFarland scale. Within 15 minutes the inoculum was adjusted, a sterile swab was introduced into the suspension and when removing it the excess liquid was eliminated. Agar Mueller-Hinton plates were inoculated, leaving no free zone, sliding the swab across the surface of the agar 3 times, rotating the plate 60° each time and finally passing it over the periphery of the agar to achieve a uniform seed.
The plates were left to dry for 3 to 5 min and the sensidiscs of the following antibiotics were placed: norfloxacin, cephalothin, azithromycin, tobramycin, ampicillin/sulbactam, erythromycin cefatoxim, nalidixic acid, ceftazidime, aztreonam, vancomycin, cefuroxime, rifampicyn, nitrofurantoin, oxacylin, nefilmicin amikacin, kanamycin ticarcillin, clindamycin, ampicillin.
All strains with an inhibition diameter of 0 are resistant to the tested antibiotic.
Regarding `NCC[C@H](O)C(=O)N[C@@H]1C[C@H](N)[C@@H](O[C@H]2O[C@H](CN)[C@@H](O)[C@H](O)[C@H]2O)[C@H](O)[C@H]1O[C@H]1O[C@H](CO)[C@@H](O)[C@H](N)[C@H]1O` [Amikacin], the “Inhibition halo (mm)” value is 0 mm.
Same read-out and setting: the same measure for `CC1(C)S[C@@H]2[C@H](NC(=O)[C@H](N)c3ccccc3)C(=O)N2[C@H]1C(=O)O` [Ampicillin]: 35 mm.
On the same count and under the same terms, the same measure for `CC[C@H]1OC(=O)[C@H](C)[C@@H](O[C@H]2C[C@@](C)(OC)[C@@H](O)[C@H](C)O2)[C@H](C)[C@@H](O[C@@H]2O[C@H](C)C[C@H](N(C)C)[C@H]2O)[C@](C)(O)C[C@@H](C)CN(C)[C@H](C)[C@@H](O)[C@]1(C)O` [Azithromycin]: 30 mm.
Same read-out and setting: the value for `C[C@H]1[C@H](NC(=O)/C(=N\OC(C)(C)C(=O)O)c2csc(N)n2)C(=O)N1S(=O)(=O)O` [Aztreonam] was 0 mm.
On to `CO/N=C(\C(=O)N[C@@H]1C(=O)N2C(C(=O)O)=C(COC(C)=O)CS[C@H]12)c1csc(N)n1` [Cefatoxim], for which the “Inhibition halo (mm)” value was 40 mm.
Same read-out and setting: the same measure for `CC(C)(O/N=C(\C(=O)N[C@@H]1C(=O)N2C(C(=O)[O-])=C(C[n+]3ccccc3)CS[C@H]12)c1csc(N)n1)C(=O)O` [Ceftazidime]: 38 mm.
The same measure, in the same setting: the value for `CO/N=C(\C(=O)N[C@@H]1C(=O)N2C(C(=O)O)=C(COC(N)=O)CS[C@H]12)c1ccco1` [Cefuroxime] was 25 mm; that for `CC(=O)OCC1=C(C(=O)O)N2C(=O)[C@@H](NC(=O)Cc3cccs3)[C@H]2SC1` [Cephalothin] was 24 mm; that for `CCC[C@@H]1C[C@@H](C(=O)N[C@@H]([C@H]2O[C@H](SC)[C@H](O)[C@@H](O)[C@H]2O)[C@H](C)Cl)N(C)C1` [Clindamycin] was 43 mm.
Same read-out and setting: the value for `CC[C@H]1OC(=O)[C@H](C)[C@@H](O[C@H]2C[C@@](C)(OC)[C@@H](O)[C@H](C)O2)[C@H](C)[C@@H](O[C@@H]2O[C@H](C)C[C@H](N(C)C)[C@H]2O)[C@](C)(O)C[C@@H](C)C(=O)[C@H](C)[C@@H](O)[C@]1(C)O` [Erythromycin] was 40 mm; that for `NC[C@H]1O[C@H](O[C@H]2[C@H](O)[C@@H](O[C@H]3O[C@H](CO)[C@@H](O)[C@H](N)[C@H]3O)[C@H](N)C[C@@H]2N)[C@H](O)[C@@H](O)[C@@H]1O` [Kanamycin] was 0 mm.
As to `CCn1cc(C(=O)O)c(=O)c2ccc(C)nc21` [Nalidixic acid], the “Inhibition halo (mm)” value was found to be 0 mm.
Still for that read-out and setting: the same measure for `O=C1CN(/N=C/c2ccc([N+](=O)[O-])o2)C(=O)N1` [Nitrofurantoin]: 40 mm; for `CCn1cc(C(=O)O)c(=O)c2cc(F)c(N3CCNCC3)cc21` [Norfloxacin]: 0 mm.
Same read-out and setting: the same measure for `CC1COc2c(N3CCN(C)CC3)c(F)cc3c(=O)c(C(=O)O)cn1c23` (stereo not drawn) [Ofloxacin]: 12 mm; for `Cc1onc(-c2ccccc2)c1C(=O)N[C@@H]1C(=O)N2[C@@H]1SC(C)(C)[C@@H]2C(=O)O` [Oxacylin]: 0 mm.
The same measure, in the same setting: the value for `CC1(C)S[C@@H]2[C@H](NC(=O)[C@H](C(=O)O)c3ccsc3)C(=O)N2[C@H]1C(=O)O` [Ticarcillin] was 40 mm; that for `NC[C@H]1O[C@H](O[C@H]2[C@H](O)[C@@H](O[C@H]3O[C@H](CO)[C@@H](O)[C@H](N)[C@H]3O)[C@H](N)C[C@@H]2N)[C@H](N)C[C@@H]1O` [Tobramycin] was 0 mm; that for `CN[C@H](CC(C)C)C(=O)N[C@H]1C(=O)N[C@@H](CC(N)=O)C(=O)N[C@H]2C(=O)N[C@H]3C(=O)N[C@H](C(=O)N[C@H](C(=O)O)c4cc(O)cc(O)c4-c4cc3ccc4O)[C@H](O)c3ccc(c(Cl)c3)Oc3cc2cc(c3O[C@@H]2O[C@H](CO)[C@@H](O)[C@H](O)[C@H]2O[C@H]2C[C@](C)(N)[C@H](O)[C@H](C)O2)Oc2ccc(cc2Cl)[C@H]1O` [Vancomycin] was 27 mm.
As to Ampicillin/Sulbactam, the “Inhibition halo (mm)” value amounted to 30 mm.
Take Nefilmicin: the “Inhibition halo (mm)” value is 0 mm.
In the case of Rifampicyn, the “Inhibition halo (mm)” value was 2 mm.

The next assay concerns homocysteine concentration in the blood.
Assay: not given
The conditions noted are these: 400 μg/day; cited from earlier work.
With `Nc1nc2ncc(CNc3ccc(C(=O)N[C@@H](CCC(=O)O)C(=O)O)cc3)nc2c(=O)[nH]1` [folic acid], the “effect on homocysteine concentration in the blood” value is “decrease the levels of homocysteine concentration in the blood”.

System in a further assay: not given
Assay: not given
The conditions noted are these: supplements before conception; cited from earlier work.
On to `Nc1nc2ncc(CNc3ccc(C(=O)N[C@@H](CCC(=O)O)C(=O)O)cc3)nc2c(=O)[nH]1` [folic acid], for which the “reduction of the risks of neurological defects in the future child” value was 50%.
